{"source": "patent US20160264935A1", "about": "“TRANSFORMED HUMAN PLURIPOTENT STEM CELLS AND ASSOCIATED METHODS” (McMaster University, priority 2009, published 2016)", "key": {"[1]": {"tested_on": "transformed stem cells (Oct4-GFP)", "assay": "High Content Screening of Oct4-GFP expression (ArrayScan HCS reader)", "format": "cell-based, human", "procedure": "At day 2 and 3 BMP4 was added to each of the treated wells at various concentrations. On day 4 microtiter plates containing treated transformed stem cells were imaged using the cellomics ArrayScan HCS reader (Thermofisher). Oct4-GFP expression was shown in green while cell nuclei are shown in blue (Hoescht 33342). A) No BMP untreated control.\nCells were grown as described in FIG. 9 with the exception of the addition of BMP4 which was replaced by DMSO at multiple concentrations as described in the Figure legends. DMSO is a chemical compound used in drug studies as a solvent which is known to induce stem cell differentiation. On day 5, after cell seeding and culture, microtiter plates were imaged using the ArrayScan HCS reader (Thermofisher). […] D) Cell numbers were quantified based on the automated detection and segregation of cells labelled by the nuclear dye Hoescht. […] All images were analyzed using the Cellomics software.\nTransformed stem cells were seeded as single cells and grown in culture using standard stem cell culture conditions for 4 days. […] On day 4 microtiter plates containing treated transformed stem cells were imaged using the cellomics ArrayScan HCS reader (Thermofisher). […]\nDue to image analysis limitations similar data could not be obtained when normal cells were used for the assays. […] All images were analyzed using the Cellomics software."}, "[2]": {"tested_on": "t-hPSCs that contain an Oct4-GFP reporter gene", "assay": "Screen of 300 compounds for inducers of stem cell differentiation (Oct4-GFP/Hoechst ratio)", "format": "cell-based, human", "settings": "72 hours after exposure; fluorescence plate reader", "text": "FIG. A: identification of inducers of stem cell differentiation. 300 compounds were screened to detect the fluorescence emitted from the Oct4-GFP reporter expressed in transformed cells and normalized to the relative cell nuclear number as defined by Hoechst staining. GFP/Hoechst ratios below zero, the threshold defined by BMP4 (a known stem cell differentiator), are considered potent inducers of stem cells differentiation. FIGS. B-C: the frequency of Oct4+ human iPS cells measured using flow cytometry following 7 days of treatment with Mefloquine (MEFLO) or thioridazine (THIO) compared to culture media (MEFCM) and culture media supplemented with DMSO (DMSO). […] FIGS. 1D-E: Measurements of cell viability using trypan blue on human mobilized peripheral blood treated with mefloquine or thioridazine for 5 days. […]\nPlates containing the cells were analyzed 72 hours after exposure to the compounds using a fluorescence plate reader capable of detecting the fluorescence emitted from the Oct4-GFP reporter expressed in transformed cells and normalized to the relative cell nuclear number as defined by Hoechst staining. […]"}, "human iPS cells": {"tested_on": "human iPS cells", "assay": "Frequency of Oct4+ cells by flow cytometry", "format": "cell-based", "settings": "7 days of treatment; compared to MEFCM and DMSO", "text": "FIG. A: identification of inducers of stem cell differentiation. 300 compounds were screened to detect the fluorescence emitted from the Oct4-GFP reporter expressed in transformed cells and normalized to the relative cell nuclear number as defined by Hoechst staining. GFP/Hoechst ratios below zero, the threshold defined by BMP4 (a known stem cell differentiator), are considered potent inducers of stem cells differentiation. FIGS. B-C: the frequency of Oct4+ human iPS cells measured using flow cytometry following 7 days of treatment with Mefloquine (MEFLO) or thioridazine (THIO) compared to culture media (MEFCM) and culture media supplemented with DMSO (DMSO). […] FIGS. 1D-E: Measurements of cell viability using trypan blue on human mobilized peripheral blood treated with mefloquine or thioridazine for 5 days. […] Mefloquine (MEFLO) and thioridazine (THIO) were then tested in human iPS cells. Following 7 days of treatment, the frequency of Oct4+ cells were measured using flow cytometry and compared to culture media (MEFCM) and culture media supplemented with DMSO (DMSO) as a vehicle to augment compound solubility."}, "[3]": {"tested_on": "human mobilized peripheral blood", "assay": "Cell viability by trypan blue exclusion", "format": "cell-based", "settings": "0.1-10 μM, 5 days", "quoted_text": "FIGS. 1D-E: Measurements of cell viability using trypan blue on human mobilized peripheral blood treated with mefloquine or thioridazine for 5 days. […] In order to further investigate the compounds identified by the screen, mefloquine and thioridazine were used to treat human mobilized peripheral blood for 5 days. Cell viability was measured using trypan blue exclusion."}, "[4]": {"tested_on": "transformed pluripotent stem cells with EOS Oct4-GFP reporter", "assay": "High throughput plate reader screen for loss of pluripotency (Oct4-Alexa 647 antibody and GFP)", "format": "cell-based, human", "settings": "1, 10, 100 ng/mL BMP4 for 4 days, n=3", "procedure": "Transformed pluripotent stem cells were passaged as single cells using Trypsin and seeded at 1000 cells per well into 96 well optical imaging plates coated with Matrigel ® containing 100 ul mouse embryonic fibroblast conditioned media (MEF-CM). Plates were incubated at 37 degrees for 24 Hr before treatment with bone morphogenic protein 4 (BMP4) commenced. Cells were treated with either 1 ng/mL, 10 ng/mL, 100 ng/mL, or 0 ng/mL BMP4 for 4 days (n=3). After 4 days cells were fixed with 2% paraformaldehyde and stained with Oct4-Alexa 647 antibody. Cells were loaded into a plate reader and measured at excitation emission pairs of 650/665 and 488/520 nm to measure Oct4-Alexa 647 antibody (top graph) and GFP (bottom graph) respectively. Pluripotency (measured by the loss of OCT4 and GFP expression) decreased with the increase in differentiation inducing compound BMP4. Similar results were obtained when other compounds were tested. […]\nThe versatility of transformed human pluripotent stem cells is illustrated by the multiple types of assays that it enables. […] Cells were loaded into a plate reader and measured at excitation emission pairs of 650/665 and 488/520 nm to measure Oct4-Alexa 647 antibody (FIG. 7 top graph) and GFP (FIG. 7 bottom graph) respectively. Pluripotency (measured by the loss of OCT4 and GFP expression) decreased with the increase in differentiation inducing compound BMP4. […]"}, "[5]": {"tested_on": "transformed pluripotent stem cells that contain an Oct4-GFP reporter", "assay": "Microscope imaging of Oct4 antibody staining and GFP after BMP-4 treatment", "format": "cell-based, human", "settings": "increased amounts of BMP-4, 4 days; microscope images", "procedure": "Transformed pluripotent stem cells that contain an Oct4-GFP reporter were plated, cultured, treated with BMP-4 and fixed as described in FIG. 7. Cells were permeabilized with 0.1% TritonX-100 and stained with Oct4 antibody conjugated with Alexa 647. The cell nuclei were stained with Hoechst 33342. Images were collected using 10× objective on Olympus microscope, and analysed using Image-Pro Plus software.\nCells were permeabilized with 0.1% TritonX-100 and stained with Oct4 antibody conjugated with Alexa 647. The cell nuclei were stained with Hoechst 33342. Images were collected using 10× objective on Olympus microscope, and analysed using Image-Pro Plus software."}}, "note": "Where a name gives a salt, the structure may show the parent alone.", "data": [{"compound": "C[S+](C)[O-]", "note": "[DMSO]", "values": [{"measurement": "Oct4-GFP expression", "setting": "[1]; DMSO 0%, 0.01%, 2% (v/v) for 4 consecutive days, imaged day 5", "result": "decreasing expression levels of GFP"}]}, {"compound": "OC(c1cc(C(F)(F)F)nc2c(C(F)(F)F)cccc12)C1CCCCN1", "note": "(centres unmarked) [Mefloquine HCl]", "values": [{"measurement": "Induction of t-hPSC differentiation (GFP/Hoechst ratio below zero, the threshold defined by BMP4)", "setting": "[2]", "result": "potent inducers of t-hPSCs differentiation"}, {"measurement": "Frequency of Oct4+ cells", "setting": "human iPS cells", "result": "decrease"}, {"measurement": "Cell viability relative to control samples (0 μM)", "setting": "[3]", "result": "did not reduce cell viability"}]}, {"compound": "CSc1ccc2c(c1)N(CCC1CCCCN1C)c1ccccc1S2", "note": "(centres unmarked) [Thioridazine HCl]", "values": [{"measurement": "Induction of t-hPSC differentiation (GFP/Hoechst ratio below zero, the threshold defined by BMP4)", "setting": "[2]", "result": "potent inducers of t-hPSCs differentiation"}, {"measurement": "Frequency of Oct4+ cells", "setting": "human iPS cells", "result": "decrease"}, {"measurement": "Cell viability relative to control samples (0 μM)", "setting": "[3]", "result": "did not reduce cell viability"}]}, {"compound": "bone morphogenic protein 4 [BMP4]", "values": [{"measurement": "Pluripotency (measured by the loss of OCT4 and GFP expression)", "setting": "[4]", "result": "decreased"}, {"measurement": "GFP fluorescence (Oct4-GFP reporter)", "setting": "[5]", "result": "decreased GFP fluorescence"}, {"measurement": "Oct-4 antibody staining", "setting": "[5]", "result": "decreased Oct-4 antibody staining"}, {"measurement": "Oct4-GFP expression", "setting": "[1]; BMP4 added at day 2 and 3, imaged day 4", "result": "significant loss of GFP expression"}]}]}
